# From PubChem BioAssay (NCI)
#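 At the GI50, growth is halved. At the TGI there is no net growth.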
# Assays:
# Experiment in all cases: NCI anticancer screen, dose series, 384-well format
# 786-0 renal = test system: 786-0 renal
# A498 renal = test system: A498 renal
# A549 NSCLC = test system: A549 NSCLC
# ACHN renal = test system: ACHN renal
# BT-549 breast = test system: BT-549 breast
# CAKI-1 renal = test system: CAKI-1 renal
# COLO 205 colon = test system: COLO 205 colon
# DU-145 prostate = test system: DU-145 prostate
# EKVX NSCLC = test system: EKVX NSCLC
# HCT-116 colon = test system: HCT-116 colon
# HCT-15 colon = test system: HCT-15 colon
# HL-60(TB) leukemia = test system: HL-60(TB) leukemia
# HOP-62 NSCLC = test system: HOP-62 NSCLC
# HOP-92 NSCLC = test system: HOP-92 NSCLC
# HS 578T breast = test system: HS 578T breast
# HT29 colon = test system: HT29 colon
# IGROV1 ovarian = test system: IGROV1 ovarian
# K-562 leukemia = test system: K-562 leukemia
# KM12 colon = test system: KM12 colon
# M14 melanoma = test system: M14 melanoma
# MALME-3M melanoma = test system: MALME-3M melanoma
# MCF7 breast = test system: MCF7 breast
# MDA-MB-231 breast = test system: MDA-MB-231 breast
# MDA-MB-435 melanoma = test system: MDA-MB-435 melanoma
# MDA-MB-468 breast = test system: MDA-MB-468 breast
# MOLT-4 leukemia = test system: MOLT-4 leukemia
# NCI-H226 lung = test system: NCI-H226 lung
# NCI-H23 lung = test system: NCI-H23 lung
# NCI-H322M lung = test system: NCI-H322M lung
# NCI-H460 NSCLC = test system: NCI-H460 NSCLC
# NCI-H522 lung = test system: NCI-H522 lung
# OVCAR-3 ovarian = test system: OVCAR-3 ovarian
# OVCAR-4 ovarian = test system: OVCAR-4 ovarian
# OVCAR-5 ovarian = test system: OVCAR-5 ovarian
# OVCAR-8 ovarian = test system: OVCAR-8 ovarian
# PC-3 prostate = test system: PC-3 prostate
# RXF 393 renal = test system: RXF 393 renal
# SF-268 CNS = test system: SF-268 CNS
# SF-295 CNS = test system: SF-295 CNS
# SF-539 CNS = test system: SF-539 CNS
# SK-MEL-2 melanoma = test system: SK-MEL-2 melanoma
# SK-MEL-28 melanoma = test system: SK-MEL-28 melanoma
# SK-MEL-5 melanoma = test system: SK-MEL-5 melanoma
# SK-OV-3 ovarian = test system: SK-OV-3 ovarian
# SN12C renal = test system: SN12C renal
# SNB-19 CNS = test system: SNB-19 CNS
# SNB-75 CNS = test system: SNB-75 CNS
# SR leukemia = test system: SR leukemia
# SW-620 colon = test system: SW-620 colon
# T-47D breast = test system: T-47D breast
# TK-10 renal = test system: TK-10 renal
# U251 glioblastoma = test system: U251 glioblastoma
# UACC-257 melanoma = test system: UACC-257 melanoma
# UACC-62 melanoma = test system: UACC-62 melanoma
# UO-31 renal = test system: UO-31 renal
structure (smiles),measurement,setting,value
COc1cccc2c1nc(C(F)F)n2-c1nc(-c2ccc(NS(=O)(=O)CCN(C)C)cc2)nc(N2CCOCC2)n1,GI50,786-0 renal,491 nM
same,TGI,786-0 renal,1690 nM
same,GI50,A498 renal,171 nM
same,TGI,A498 renal,961 nM
same,GI50,A549 NSCLC,297 nM
same,TGI,A549 NSCLC,1260 nM
same,GI50,ACHN renal,144 nM
same,TGI,ACHN renal,1050 nM
same,GI50,BT-549 breast,250 nM
same,TGI,BT-549 breast,1400 nM
same,GI50,CAKI-1 renal,200 nM
same,TGI,CAKI-1 renal,1420 nM
same,GI50,COLO 205 colon,219 nM
same,TGI,COLO 205 colon,1100 nM
same,GI50,DU-145 prostate,263 nM
same,TGI,DU-145 prostate,1390 nM
same,GI50,EKVX NSCLC,53.9 nM
same,TGI,EKVX NSCLC,426 nM
same,GI50,HCT-116 colon,320 nM
same,TGI,HCT-116 colon,1510 nM
same,GI50,HCT-15 colon,300 nM
same,TGI,HCT-15 colon,1450 nM
same,GI50,HL-60(TB) leukemia,116 nM
same,TGI,HL-60(TB) leukemia,1100 nM
same,GI50,HOP-62 NSCLC,285 nM
same,TGI,HOP-62 NSCLC,1420 nM
same,GI50,HOP-92 NSCLC,167 nM
same,TGI,HOP-92 NSCLC,998 nM
same,GI50,HS 578T breast,92.1 nM
same,TGI,HS 578T breast,377 nM
same,GI50,HT29 colon,238 nM
same,TGI,HT29 colon,1470 nM
same,GI50,IGROV1 ovarian,24.9 nM
same,TGI,IGROV1 ovarian,96.3 nM
same,GI50,K-562 leukemia,634 nM
same,TGI,K-562 leukemia,1950 nM
same,GI50,KM12 colon,110 nM
same,TGI,KM12 colon,1220 nM
same,GI50,M14 melanoma,390 nM
same,TGI,M14 melanoma,1710 nM
same,GI50,MALME-3M melanoma,127 nM
same,TGI,MALME-3M melanoma,874 nM
same,GI50,MCF7 breast,21.3 nM
same,TGI,MCF7 breast,299 nM
same,GI50,MDA-MB-231 breast,319 nM
same,TGI,MDA-MB-231 breast,1800 nM
same,GI50,MDA-MB-435 melanoma,255 nM
same,TGI,MDA-MB-435 melanoma,1390 nM
same,GI50,MDA-MB-468 breast,76.2 nM
same,TGI,MDA-MB-468 breast,431 nM
same,GI50,MOLT-4 leukemia,46.8 nM
same,TGI,MOLT-4 leukemia,176 nM
same,GI50,NCI-H226 lung,195 nM
same,TGI,NCI-H226 lung,873 nM
same,GI50,NCI-H23 lung,148 nM
same,TGI,NCI-H23 lung,1040 nM
same,GI50,NCI-H322M lung,151 nM
same,TGI,NCI-H322M lung,1090 nM
same,GI50,NCI-H460 NSCLC,302 nM
same,TGI,NCI-H460 NSCLC,1550 nM
same,GI50,NCI-H522 lung,98.7 nM
same,TGI,NCI-H522 lung,689 nM
same,GI50,OVCAR-3 ovarian,138 nM
same,TGI,OVCAR-3 ovarian,1110 nM
same,GI50,OVCAR-4 ovarian,144 nM
same,TGI,OVCAR-4 ovarian,1550 nM
same,GI50,OVCAR-5 ovarian,266 nM
same,TGI,OVCAR-5 ovarian,5440 nM
same,GI50,OVCAR-8 ovarian,323 nM
same,TGI,OVCAR-8 ovarian,1590 nM
same,GI50,PC-3 prostate,122 nM
same,TGI,PC-3 prostate,1200 nM
same,GI50,RXF 393 renal,22.4 nM
same,TGI,RXF 393 renal,364 nM
same,GI50,SF-268 CNS,374 nM
same,TGI,SF-268 CNS,1780 nM
same,GI50,SF-295 CNS,161 nM
same,TGI,SF-295 CNS,1100 nM
same,GI50,SF-539 CNS,179 nM
same,TGI,SF-539 CNS,1230 nM
same,GI50,SK-MEL-2 melanoma,282 nM
same,TGI,SK-MEL-2 melanoma,1540 nM
same,GI50,SK-MEL-28 melanoma,191 nM
same,TGI,SK-MEL-28 melanoma,17100 nM
same,GI50,SK-MEL-5 melanoma,93.8 nM
same,TGI,SK-MEL-5 melanoma,371 nM
same,GI50,SK-OV-3 ovarian,83.5 nM
same,TGI,SK-OV-3 ovarian,362 nM
same,GI50,SN12C renal,229 nM
same,TGI,SN12C renal,12400 nM
same,GI50,SNB-19 CNS,3800 nM
same,TGI,SNB-19 CNS,22100 nM
same,GI50,SNB-75 CNS,29.6 nM
same,TGI,SNB-75 CNS,361 nM
same,GI50,SR leukemia,153 nM
same,TGI,SR leukemia,408 nM
same,GI50,SW-620 colon,418 nM
same,TGI,SW-620 colon,1780 nM
same,GI50,T-47D breast,24 nM
same,TGI,T-47D breast,120 nM
same,GI50,TK-10 renal,127 nM
same,TGI,TK-10 renal,1220 nM
same,GI50,U251 glioblastoma,1020 nM
same,TGI,U251 glioblastoma,2200 nM
same,GI50,UACC-257 melanoma,292 nM
same,TGI,UACC-257 melanoma,1360 nM
same,GI50,UACC-62 melanoma,206 nM
same,TGI,UACC-62 melanoma,1250 nM
same,GI50,UO-31 renal,125 nM
same,TGI,UO-31 renal,384 nM
